The nature of data set [1]: Compound stability in a biological matrix (human plasma). It counts as in vitro ADME. Conditions: 10 μg/mL, 37° C., LC-MS/MS. The procedure: (§1) A compound was dissolved in DMSO as a 1 mg/mL stock solution. An ACN solution of the compound at 100 μg/mL was prepared from the stock solution, 10 μL of which was added to a biological matrix (90 μL) to the final concentration of 10 μg/mL for the compound. The mixtures of the compound in a biological matrix were incubated at 37° C. for 0, 0.5, 1, or 4 h. At each time point, ACN (900 μL) was added to a mixture. After the mixture was centrifuged at 15,000 rpm for 5 min, the supernatant was mixed with the same volume of H2O (1% TFA) and then analyzed by LC-MS/MS. The results are summarized in Table 3, wherein Cbz-AAM is (2R,3S,4R,5S)-6-((4-((S)-6-acetamido-2-(((benzyloxy)carbonyl)amino)hexan-amido)phenyl)(phenyl)methoxy)-2-(acetoxymethyl)-5-(2-azidoacetamido)tetrahydro-2H-pyran-3,4-diyl diacetate.

The nature of data set [2]: Compound stability in a biological matrix (mouse plasma). The class given is in vitro ADME. Conditions: 10 μg/mL, 37° C., LC-MS/MS. How it is done:
as §1

In a further data set the test system is A549 cells. As to the kind of experiment: Flow cytometry analysis of cell labeling (azido labeling efficiency). The class given is cell-based. Conditions: Homo sapiens; A549 cells (lung); azido compound 25 μM, 48 h; mean fluorescence of live cells compared with PBS negative control. How it is done:
Cells (2.0×10^6 cells/mL, 2 mL) were seeded in a 6-well culture plate and attached at 37° C. overnight. After washed thrice with PBS, the cells were incubated with an azido compound (25 μM) at 37° C. for 48 h. After washed thrice with PBS, the cells were incubated with DBCO-biotin (50 μM) in 500 μL serum free DMEM at 37° C. for 1 h. The cells were washed thrice with PBS and then incubated with streptavidin-Cy5 (5 μg/mL) in 500 μL serum free DMEM at 37° C. for 1 h. The cells were washed thrice with PBS, followed by addition of 300 μL 1×trypsin/EDTA for digestion. The lifted cells were transferred to a 1.5 mL EP tube, centrifuge at 1,000 rpm for 3 min, and washed with PBS once. Finally, 500 μL PBS containing 4% PFA was added to the cell pellet to fix the cells. The cell suspension was transferred to a flow tube and mixed with 10 μL of a PI working solution (50 μg/mL) at room temperature for 30 min before being subjected to flow cytometry.
Flow cytometry was used to characterize the labeling efficiency of a compound provided herein. After cells were labeled with an azido group, DBCO-biotin was added to specifically react with the azido group. Avidin-Cy5 was added bind to the cell surface biotin for a flow cytometry analysis. Dead cells were stained with PI and excluded from the analysis. Results were presented as the mean fluorescence of live cells, compared with PBS as a negative control and Ac4ManNAz (AAM) as a positive control, Ac4ManNAz (AAM, CAS: 361154-30-5).
(Flow cytometry measures light scatter and fluorescence of single cells or particles in a stream.)

Regarding `CC(=O)NCCCC[C@H](NC(=O)OCc1ccccc1)C(=O)Nc1ccc(C(OC2O[C@H](COC(C)=O)[C@@H](OC(C)=O)[C@H](OC(C)=O)[C@@H]2NC(=O)CN=[N+]=[N-])c2ccccc2)cc1` (stereo partly drawn) [Cbz-AAM, (2R,3S,4R,5S)-6-((4-((S)-6-acetamido-2-(((benzyloxy)carbonyl)amino)hexan-amido)phenyl)(phenyl)methoxy)-2-(acetoxymethyl)-5-(2-azidoacetamido)tetrahydro-2H-pyran-3,4-diyl diacetate, reference compound], in data set [1], the “Compound Remaining (%) Human 1 h” value was found to be 100% and the “Compound Remaining (%) Human 4 h” value was found to be 100%. Moreover, the “Compound Remaining (%) Mouse 1 h” value in data set [2] is 16%.
As to `CC(=O)NCCCC[C@H](NC(=O)OCc1ccccc1)C(=O)Nc1ccc(C(OC2OC(COC(C)=O)C(OC(C)=O)C(OC(C)=O)C2NC(=O)CN=[N+]=[N-])c2cnc[nH]2)cc1` (stereo partly drawn) [Compound A1, 1-O-(1-(imidazol-4-yl)-1-(4-(6-acetamido-2(S)-(benzyloxycarbonylamino)-hexanamido)phenyl)methyl)-2-(2-azidoacetylamino)-2-deoxy-3,4,6-tri-O-acetyl-D-mannopyranoside], in the data set on A549 cells, the activity at 25 µM is 103%. In data set [1], the “Compound Remaining (%) Human 1 h” value was found to be 94% and the “Compound Remaining (%) Human 4 h” value is recorded as 70%. In data set [2], the “Compound Remaining (%) Mouse 1 h” value was determined as 91% and the “Compound Remaining (%) Mouse 4 h” value was 72%.
`CC(=O)NCCCC[C@H](NC(=O)OCc1ccccc1)C(=O)Nc1ccc(C(OC2OC(COC(C)=O)C(OC(C)=O)C(OC(C)=O)C2NC(=O)CN=[N+]=[N-])c2cn(C)cn2)cc1` (stereo partly drawn) [Compound A2, 1-O-(1-(1-methylimidazol-4-yl)-1-(4-(6-acetamido-2(S)-(benzyloxycarbonylamino)-hexanamido)phenyl)methyl)-2-(2-azidoacetylamino)-2-deoxy-3,4,6-tri-O-acetyl-D-mannopyranoside]: the activity at 25 µM in the data set with A549 cells was determined as 250%. In data set [1], the “Compound Remaining (%) Human 1 h” value amounted to 100% and the “Compound Remaining (%) Human 4 h” value was determined as 90%. Further, in data set [2], the “Compound Remaining (%) Mouse 1 h” value worked out at 98% and the “Compound Remaining (%) Mouse 4 h” value was found to be 87%.
As to `CC(=O)NCCCC[C@H](NC(=O)OCc1ccccc1)C(=O)Nc1ccc(C(OC2OC(COC(C)=O)C(OC(C)=O)C(OC(C)=O)C2NC(=O)CN=[N+]=[N-])c2cncs2)cc1` (stereo partly drawn) [Compound A3, 1-O-(1-(thiazol-5-yl)-1-(4-(6-acetamido-2(S)-(benzyloxycarbonylamino)-hexanamido)phenyl)methyl)-2-(2-azidoacetylamino)-2-deoxy-3,4,6-tri-O-acetyl-D-mannopyranoside], in data set [2], the “Compound Remaining (%) Mouse 1 h” value stood at 72% and the “Compound Remaining (%) Mouse 4 h” value worked out at 19%.
For the compound `CC(=O)NCCCC[C@H](NC(=O)OCc1ccccc1)C(=O)Nc1ccc(C(OC2OC(COC(C)=O)C(OC(C)=O)C(OC(C)=O)C2NC(=O)CN=[N+]=[N-])c2cccs2)cc1` (stereo partly drawn) [Compound A4, 1-O-(1-(thien-2-yl)-1-(4-(6-acetamido-2(S)-(benzyloxycarbonylamino)-hexanamido)phenyl)methyl)-2-(2-azidoacetylamino)-2-deoxy-3,4,6-tri-O-acetyl-D-mannopyranoside], the activity at 25 µM with A549 cells is 83%. For the same compound, in data set [1], the “Compound Remaining (%) Human 1 h” value is listed as 2% and the “Compound Remaining (%) Human 4 h” value is listed as 1%. Besides, in data set [2], the “Compound Remaining (%) Mouse 1 h” value came to 3% and the “Compound Remaining (%) Mouse 4 h” value was 3%.
On to `CC(=O)NCCCC[C@H](NC(=O)OCc1ccccc1)C(=O)Nc1ccc(C(OC2OC(COC(C)=O)C(OC(C)=O)C(OC(C)=O)C2NC(=O)CN=[N+]=[N-])c2ccsc2)cc1` (stereo partly drawn) [Compound A5, 1-O-(1-(Thien-3-yl)-1-(4-(6-acetamido-2(S)-(benzyloxycarbonylamino)hexan-amido)phenyl)methyl)-2-(2-azidoacetylamino)-2-deoxy-3,4,6-tri-O-acetyl-D-mannopyranoside], for which the activity at 25 µM in the data set on A549 cells came out at 130%. Moreover, in data set [1], the “Compound Remaining (%) Human 1 h” value was 2% and the “Compound Remaining (%) Human 4 h” value worked out at 1%. In data set [2], the “Compound Remaining (%) Mouse 1 h” value came out at 2% and the “Compound Remaining (%) Mouse 4 h” value came out at 2%.
Take `CC(=O)NCCCC[C@H](NC(=O)OCc1ccccc1)C(=O)Nc1ccc(C(OC2OC(COC(C)=O)C(OC(C)=O)C(OC(C)=O)C2NC(=O)CN=[N+]=[N-])c2cccnc2)cc1` (some centres unmarked) [Compound A6]: in data set [1], the “Compound Remaining (%) Human 1 h” value was determined as 88% and the “Compound Remaining (%) Human 4 h” value is given as 65%. For the same compound, in data set [2], the “Compound Remaining (%) Mouse 1 h” value is 4% and the “Compound Remaining (%) Mouse 4 h” value is recorded as 0.6%.
Take `CC(=O)NCCCC[C@H](NC(=O)OCc1ccccc1)C(=O)Nc1ccc(C(OC2OC(COC(C)=O)C(OC(C)=O)C(OC(C)=O)C2NC(=O)CN=[N+]=[N-])c2ccncc2)cc1` (stereo partly drawn) [Compound A7, 1-O-(1-(Pyridin-4-yl)-1-(4-(6-acetamido-2(S)-(benzyloxycarbonylamino)hexan-amido)phenyl)methyl)-2-(2-azidoacetylamino)-2-deoxy-3,4,6-tri-O-acetyl-D-mannopyranoside]: in data set [1], the “Compound Remaining (%) Human 1 h” value came to 41% and the “Compound Remaining (%) Human 4 h” value amounted to 4%. For the same compound, in data set [2], the “Compound Remaining (%) Mouse 1 h” value was determined as 29% and the “Compound Remaining (%) Mouse 4 h” value worked out at 6%.
In the case of `CC(=O)NCCCC[C@H](NC(=O)OCc1ccccc1)C(=O)Nc1ccc(C(OC2OC(COC(=O)C3CCOCC3)C(OC(C)=O)C(OC(C)=O)C2NC(=O)CN=[N+]=[N-])c2ccnn2C)cc1` (stereo partly drawn) [Compound A9, 1-O-(1-(2-methylpyrazol-3-yl)-1-(4-(6-acetamido-2(S)-(benzyloxycarbonyl-amino)hexanamido)phenyl)methyl)-2-(2-azidoacetylamino)-2-deoxy-3,4-di-O-acetyl-6-O-tetrahydropyran-4-ylcarbonyl-D-mannopyranoside], in the data set on A549 cells, the activity at 25 µM worked out at 197%. Also, in data set [1], the “Compound Remaining (%) Human 1 h” value is listed as 63% and the “Compound Remaining (%) Human 4 h” value came out at 16%. Also, in data set [2], the “Compound Remaining (%) Mouse 1 h” value came out at 84% and the “Compound Remaining (%) Mouse 4 h” value is listed as 27%.
Consider `CC(=O)NCCCC[C@H](NC(=O)OCc1ccccc1)C(=O)Nc1ccc(C(OC2OC(COC(=O)C3CCN(C)CC3)C(OC(C)=O)C(OC(C)=O)C2NC(=O)CN=[N+]=[N-])c2ccnn2C)cc1` (stereo partly drawn) [Compound A10, 1-O-(1-(2-Methylpyrazol-3-yl)-1-(4-(6-acetamido-2(S)-(benzyloxycarbonyl-amino)hexanamido)phenyl)methyl)-2-(2-azidoacetylamino)-2-deoxy-3,4-di-O-acetyl-6-O-(1-methylpiperidin-4-yl)carbonyl-D-mannopyranoside], for which the activity at 25 µM in the data set with A549 cells was 166%. In data set [1], the “Compound Remaining (%) Human 1 h” value stood at 62% and the “Compound Remaining (%) Human 4 h” value turned out to be 5%. Moreover, in data set [2], the “Compound Remaining (%) Mouse 1 h” value is reported as 81% and the “Compound Remaining (%) Mouse 4 h” value was found to be 21%.
As to `CC(=O)NCCCC[C@H](NC(=O)OCc1ccccc1)C(=O)Nc1ccc(C(OC2OC(COC(=O)CN3CCCC3)C(OC(C)=O)C(OC(C)=O)C2NC(=O)CN=[N+]=[N-])c2ccnn2C)cc1` (stereo partly drawn) [Compound A11, 1-O-(1-(2-Methylpyrazol-3-yl)-1-(4-(6-acetamido-2(S)-(benzyloxycarbonyl-amino)hexanamido)phenyl)methyl)-2-(2-azidoacetylamino)-2-deoxy-3,4-di-O-acetyl-6-O-(pyrrolin-1-ylacetyl)-D-mannopyranoside], in data set [2], the “Compound Remaining (%) Mouse 1 h” value worked out at 38% and the “Compound Remaining (%) Mouse 4 h” value is given as 3%.
For `CC(=O)NCCCC[C@H](NC(=O)OCc1ccccc1)C(=O)Nc1ccc(C(OC2OC(COC(=O)Cc3cccnc3)C(OC(C)=O)C(OC(C)=O)C2NC(=O)CN=[N+]=[N-])c2ccnn2C)cc1` (stereo partly drawn) [Compound A12, 1-O-(1-(2-Methylpyrazol-3-yl)-1-(4-(6-acetamido-2(S)-(benzyloxycarbonyl-amino)hexanamido)phenyl)methyl)-2-(2-azidoacetylamino)-2-deoxy-3,4-di-O-acetyl-6-O-(pyridin-3-ylacetyl)-D-mannopyranoside], the activity at 25 µM with A549 cells was found to be 165%. Further, in data set [1], the “Compound Remaining (%) Human 1 h” value is listed as 64% and the “Compound Remaining (%) Human 4 h” value stood at 8%. In data set [2], the “Compound Remaining (%) Mouse 1 h” value was found to be 82% and the “Compound Remaining (%) Mouse 4 h” value was found to be 27%.

The record behind these values is patent US20260200964A1, “MONOSACCARIDES, PHARMACEUTICAL COMPOSITIONS, AND DIAGNOSTIC AND THERAPEUTIC APPLICATIONS” (Surio Therapeutics Co., LTD., priority 2022, published 2026).
